# Results reported in patent US20160213788A1, “ACTIVE TARGETING ANTITUMOR DRUG AND PREPARATION METHOD THEREFOR” (NINGBO INSTITUTE OF MATERIALS TECHNOLOGY & ENGINEERING, …, priority 2013, published 2016).
# Columns and labels:
# [1] = test system: human breast cancer MCF-7 cells; experiment: MTT test (cell toxicity test); format: cell-based; conditions: for survival rate of cell (%): MCF-7, 4 h exposure then 44 h culture
# Method: (§1) (1) MTT test (cell toxicity test)
# (§2) 1. formulating a single cell suspension with a medium containing 10% fetal calf serum, and then seeding the suspension into 96-well plates in 1.0×10^5 cells per well. The volume of each well was 150 μL.
# (§3) 2. placing the plates into a cell incubator of 37° C. and culturing for 24 h.
# (§4) 3. absorbing and discarding the supernatant of the medium in the well, and adding […], fresh medium containing TXT or […], solution containing composition [D-Arg^25]-NPY-ANP-TXT with same concentration of TXT.
# (§5) 4. placing into a cell incubator of 37° C. and culturing for 4 h, absorbing and discarding the supernatant of the medium in the well, and then replacing with fresh medium contain no medication or nanoparticle composition, and continuing to culture for 44 h.
# (§6) 5. adding 10 μL MTT solution (5 mg/ml, in PBS, pH=7.4) into each well, placing the plates into a cell incubator of 37° C. and continuing to culture for 4 h, terminating the culture, and then absorbing and discarding the supernatant of the medium in the well.
# (§7) 6. adding 150 μL DMSO into each well, oscillating for 10 min, so that the crystal was fully thawed.
# (§8) 7. selecting 550 nm wavelength, and measuring the light absorbance for each well with enzyme-linked immunosorbent monitor and recording the results.
# (§9) The cells used in cell experiments comprised human breast cancer MCF-7 cells, human endometrial tumors HEC-1B-Y5 cells (Purchased from American Type Culture Collection (ATCC) and Sciencell company(USA))
# [2] = test system: human endometrial tumors HEC-1B-Y5 cells; experiment: MTT test (cell toxicity test); format: cell-based; conditions: for survival rate of cell (%): HEC-1B-Y5, 4 h exposure then 44 h culture
# Method: as §1, §2, §3, §4, §5, §6, §7, §8, §9
smiles,measurement,setting,value
"CC(=O)O[C@@]12CO[C@@H]1C[C@H](O)[C@@]1(C)C(=O)[C@H](O)C3=C(C)[C@@H](OC(=O)[C@H](O)[C@@H](NC(=O)OC(C)(C)C)c4ccccc4)C[C@@](O)([C@@H](OC(=O)c4ccccc4)[C@H]21)C3(C)C [TXT, docetaxel]",survival rate of cell (%),[1]; CTXT 0.5 μg/mL,90%
same,survival rate of cell (%),[1]; CTXT 1.0 μg/mL,80%
same,survival rate of cell (%),[1]; CTXT 2.0 μg/mL,50%
same,survival rate of cell (%),[1]; CTXT 5.0 μg/mL,20%
same,survival rate of cell (%),[1]; CTXT 10.0 μg/mL,20%
same,killing effect (in words),[1]; MCF-7 cells,excellent killing effect
same,survival rate of cell (%),[2]; CTXT 0.5 μg/mL,91%
same,survival rate of cell (%),[2]; CTXT 1.0 μg/mL,79%
same,survival rate of cell (%),[2]; CTXT 2.0 μg/mL,55%
same,survival rate of cell (%),[2]; CTXT 5.0 μg/mL,40%
same,survival rate of cell (%),[2]; CTXT 10.0 μg/mL,30%
same,killing effect (in words),[2]; HEC-1B-Y5 cells,excellent killing effect
